One may read the IC50 as the concentration that gives 50% inhibition. A higher IC50 goes with lower potency.

Consider 28 compounds from patent US20220356174A1, “PYRIDIN-2-ONE COMPOUNDS USEFUL AS SMARCA2 ANTAGONISTS” (Epizyme, Inc., priority 2018, published 2022).

T1 sequence (P51531 with tags, fused parts or gaps): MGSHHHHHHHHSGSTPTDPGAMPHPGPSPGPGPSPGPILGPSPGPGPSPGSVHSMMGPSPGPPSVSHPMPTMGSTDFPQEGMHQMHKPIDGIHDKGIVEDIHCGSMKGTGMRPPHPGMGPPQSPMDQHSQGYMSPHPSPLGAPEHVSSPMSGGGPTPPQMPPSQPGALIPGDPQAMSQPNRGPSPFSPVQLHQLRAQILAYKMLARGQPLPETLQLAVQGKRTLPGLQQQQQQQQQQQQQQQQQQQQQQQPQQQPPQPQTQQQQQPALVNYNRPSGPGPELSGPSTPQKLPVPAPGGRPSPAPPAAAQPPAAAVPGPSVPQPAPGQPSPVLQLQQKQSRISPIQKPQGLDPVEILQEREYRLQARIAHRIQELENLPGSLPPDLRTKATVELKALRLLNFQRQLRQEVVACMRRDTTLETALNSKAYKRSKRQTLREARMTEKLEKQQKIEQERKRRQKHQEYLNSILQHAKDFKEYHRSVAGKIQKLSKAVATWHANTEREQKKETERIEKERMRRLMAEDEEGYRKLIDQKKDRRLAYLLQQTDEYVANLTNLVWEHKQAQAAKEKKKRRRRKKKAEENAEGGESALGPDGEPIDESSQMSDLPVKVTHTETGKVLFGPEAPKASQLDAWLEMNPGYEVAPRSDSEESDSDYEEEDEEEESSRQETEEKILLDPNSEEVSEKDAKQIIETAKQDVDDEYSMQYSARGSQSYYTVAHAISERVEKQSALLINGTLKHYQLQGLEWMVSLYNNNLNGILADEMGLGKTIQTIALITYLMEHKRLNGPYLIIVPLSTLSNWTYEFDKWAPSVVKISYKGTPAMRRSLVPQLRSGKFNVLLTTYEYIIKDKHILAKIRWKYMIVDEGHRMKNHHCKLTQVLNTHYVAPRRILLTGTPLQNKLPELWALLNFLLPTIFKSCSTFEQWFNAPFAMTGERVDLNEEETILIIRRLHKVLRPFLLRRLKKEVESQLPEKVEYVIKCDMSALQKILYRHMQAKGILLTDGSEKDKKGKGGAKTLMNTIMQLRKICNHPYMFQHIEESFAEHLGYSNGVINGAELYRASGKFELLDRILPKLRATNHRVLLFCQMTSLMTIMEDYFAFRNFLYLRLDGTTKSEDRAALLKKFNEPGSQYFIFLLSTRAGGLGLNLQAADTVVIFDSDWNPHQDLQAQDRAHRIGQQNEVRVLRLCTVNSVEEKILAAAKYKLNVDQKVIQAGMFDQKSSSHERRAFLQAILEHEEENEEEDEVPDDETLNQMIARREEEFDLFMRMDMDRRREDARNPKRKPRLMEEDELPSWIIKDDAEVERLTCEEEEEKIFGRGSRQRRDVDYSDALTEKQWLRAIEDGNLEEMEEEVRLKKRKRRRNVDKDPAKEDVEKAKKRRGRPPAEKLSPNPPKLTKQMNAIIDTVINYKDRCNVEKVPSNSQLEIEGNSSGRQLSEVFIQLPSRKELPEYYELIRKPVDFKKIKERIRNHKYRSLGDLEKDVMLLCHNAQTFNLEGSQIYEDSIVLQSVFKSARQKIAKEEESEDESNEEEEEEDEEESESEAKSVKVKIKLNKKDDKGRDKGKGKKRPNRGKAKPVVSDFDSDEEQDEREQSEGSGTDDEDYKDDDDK

The first experiment concerns the target T1, FL-SMARCA2 (full-length human SMARCA2 isoform 1) (Homo sapiens, UniProt P51531).
T1 construct: FLAG tag (YKDDDDK) (C); made in house; host or cells: Sf21 insect cells (baculovirus, pFastBacI)
Nature of the experiment: SMARCA2 ATPase activity assay (ADP-Glo, chicken mononucleosome substrate). Format: biochemical. The conditions noted are these: Table 3a.1; SMARCA2 5 nM, ATP 250 uM, mononucleosome 10 nM. Background: ADP-Glo first removes unused ATP, then detects ADP through luciferase.
`CC(C)COc1ncccc1C(=O)Nc1cc(Cl)c(=O)n(C)c1` [Compound 2a] came in with an IC50 of more than 50 µM.
The compound `C[C@H]1OCC(=O)N(Cc2ccccc2)[C@@H]1C(=O)Nc1ccc(=O)n(C)c1` [Compound 7a] displayed an IC50 of more than 50 µM.
On the same count and under the same terms, the same measure for `O=C(Nc1cc(F)c(=O)n(CCF)c1)N1CCC(Cl)=C(Cl)C1` [Compound 60a]: 14.3 µM.
The compound `CCn1cc(NC(=O)c2ccc(Cl)c(C)n2)ccc1=O` [Compound 35a] had an IC50 of more than 50 µM.
Consider `CO[C@H]1C[C@@H](C(=O)Nc2ccc(=O)n(C)c2)N(C)C1` [Compound 10a], for which the IC50 is more than 50 µM.
Same read-out and setting: for `CCn1cc(NC(=O)c2cn3cccnc3n2)ccc1=O` [Compound 21a] the value was more than 50 µM; for `O=C(Nc1cc(F)c(=O)n(CCF)c1)c1ccc2c(c1)CNC2=O` [Compound 68a], more than 50 µM.

Staying with this experiment, now noted: Table 3b.1; SMARCA2 5 nM, ATP 250 uM, mononucleosome 10 nM.
As to `CN(C)C(=O)c1ccc(C(=O)Nc2cc(F)c(=O)n(CCF)c2)cc1` [Compound 21b], the IC50 was more than 50 µM.
On to `CCn1cc(NC(=O)c2ccc(Cl)c(F)c2)ccc1=O` [Compound 9b], for which the IC50 was 43.7 µM.
Same read-out and setting: the same measure for `CCn1cc(NC(=O)c2cccc(Cl)c2F)ccc1=O` [Compound 10b]: more than 50 µM.
In turn, `CCn1cc(NC(=O)[C@@H]2CCC[C@H](Cl)C2)ccc1=O` [Compound 13b] registered an IC50 of more than 50 µM.
For `CC(=O)c1cc(C(=O)Nc2c[nH]c(=O)c(C)c2)ccc1C` [Compound 1b], the concentration for half-maximal inhibition (IC50) was more than 50 µM.

The same experiment, now with this note: Table 3c.1; ATPase assay, enzyme 5 nM, ATP 250 uM, chicken mononucleosome 10 nM, 30 min preincubation.
In the case of `O=C(Nc1cc(F)c(=O)n(CC(F)F)c1)c1cc(C2COC2)c(Cl)s1` [Compound 49c], 16.8 µM corresponded to half-maximal inhibition (IC50).
Take `O=C(Nc1cc(F)c(=O)n(CC(F)F)c1)c1cc(C#CC2COC2)c(F)s1` [Compound 108c]: the half-inhibitory concentration (IC50) was 0.0818 µM.
`CC(C)(C)OC(=O)N1CC(C#Cc2cc(C(=O)Nc3cc(F)c(=O)n(CC(F)F)c3)sc2Cl)C1` [Compound 10c] returned an IC50 of 3.35 µM.
Regarding `O=C(Nc1cc(-c2c[nH]cn2)c(=O)n(CC(F)F)c1)c1cc(Cl)c(C(F)(F)F)s1` [Compound 104c], half-maximal inhibition (IC50) required 22.4 µM.
Consider `Cn1ccc(-c2cc(NC(=O)c3sc(C(F)(F)F)cc3Cl)cn(CC(F)F)c2=O)n1` [Compound 19c], for which the IC50 was more than 50 µM.

The experiment is the same for the next values; noted with them: Table 3.1; ATPase assay, enzyme 5 nM, ATP 250 uM, chicken mononucleosome 10 nM, 30 min preincubation.
On to `Cn1c(C(=O)Nc2ccc(=O)n(CC(F)(F)F)c2)cc(Cl)c1Cl` [Compound 53], for which it took 1.48 µM to reach half-maximal inhibition (IC50). This counts as single-digit micromolar.
For `CCn1cc(NC(=O)c2ccc(Br)n2C)ccc1=O` [Compound 19], the IC50 is more than 50 µM.
Consider `CCn1cc(NC(=O)c2cc(Cl)c(Cl)s2)cc(OCCN(C)C)c1=O` [Compound 121], for which the IC50 was more than 50 µM.
In turn, `NC(=O)c1ccc(C(=O)Nc2cc(F)c(=O)n(CCF)c2)s1` [Compound 303] displayed an IC50 of more than 50 µM.
For the compound `O=C(Nc1cc(F)c(=O)n(CCF)c1)c1csc(NC2CCCC2)n1` [Compound 201], the IC50 was more than 50 µM.
For the compound `CCn1cc(NC(=O)c2cc(Cl)c(Cl)s2)cc(NCCOC)c1=O` [Compound 113], the IC50 amounted to 14.1 µM.
The compound `CCn1cc(NC(=O)c2cc(Cl)ns2)ccc1=O` [Compound 107] registered an IC50 of 36.7 µM.
`Nc1ncc(C(=O)Nc2cc(F)c(=O)n(CCF)c2)s1` [Compound 224] came in with an IC50 of more than 50 µM.
Consider `CN(C)CCn1cc(NC(=O)c2cc(Cl)c(Cl)n2C)ccc1=O` [Compound 89], for which the IC50 is more than 50 µM.
The same measure, in the same setting: for `O=C(Nc1cc(Cl)c(=O)n(CCF)c1)c1cc(Cl)n[nH]1` [Compound 156] the value was 0.235 µM.
Still for that read-out and setting: the same measure for `Nc1c(C(=O)Nc2cc(F)c(=O)n(CC(F)F)c2)sc(Cl)c1Cl` [Compound 332]: 0.331 µM.

In the next experiment the target is FL-SMARCA4 (Homo sapiens, UniProt P51532). Nature of the experiment: SMARCA4 ATPase activity assay (ADP-Glo, chicken mononucleosome substrate). The following applies: FL-SMARCA4 IC50, Table 3a.2; SMARCA4 5 nM, ATP 250 uM, mononucleosome 10 nM.
Sequence of FL-SMARCA4 (P51532 whole entry): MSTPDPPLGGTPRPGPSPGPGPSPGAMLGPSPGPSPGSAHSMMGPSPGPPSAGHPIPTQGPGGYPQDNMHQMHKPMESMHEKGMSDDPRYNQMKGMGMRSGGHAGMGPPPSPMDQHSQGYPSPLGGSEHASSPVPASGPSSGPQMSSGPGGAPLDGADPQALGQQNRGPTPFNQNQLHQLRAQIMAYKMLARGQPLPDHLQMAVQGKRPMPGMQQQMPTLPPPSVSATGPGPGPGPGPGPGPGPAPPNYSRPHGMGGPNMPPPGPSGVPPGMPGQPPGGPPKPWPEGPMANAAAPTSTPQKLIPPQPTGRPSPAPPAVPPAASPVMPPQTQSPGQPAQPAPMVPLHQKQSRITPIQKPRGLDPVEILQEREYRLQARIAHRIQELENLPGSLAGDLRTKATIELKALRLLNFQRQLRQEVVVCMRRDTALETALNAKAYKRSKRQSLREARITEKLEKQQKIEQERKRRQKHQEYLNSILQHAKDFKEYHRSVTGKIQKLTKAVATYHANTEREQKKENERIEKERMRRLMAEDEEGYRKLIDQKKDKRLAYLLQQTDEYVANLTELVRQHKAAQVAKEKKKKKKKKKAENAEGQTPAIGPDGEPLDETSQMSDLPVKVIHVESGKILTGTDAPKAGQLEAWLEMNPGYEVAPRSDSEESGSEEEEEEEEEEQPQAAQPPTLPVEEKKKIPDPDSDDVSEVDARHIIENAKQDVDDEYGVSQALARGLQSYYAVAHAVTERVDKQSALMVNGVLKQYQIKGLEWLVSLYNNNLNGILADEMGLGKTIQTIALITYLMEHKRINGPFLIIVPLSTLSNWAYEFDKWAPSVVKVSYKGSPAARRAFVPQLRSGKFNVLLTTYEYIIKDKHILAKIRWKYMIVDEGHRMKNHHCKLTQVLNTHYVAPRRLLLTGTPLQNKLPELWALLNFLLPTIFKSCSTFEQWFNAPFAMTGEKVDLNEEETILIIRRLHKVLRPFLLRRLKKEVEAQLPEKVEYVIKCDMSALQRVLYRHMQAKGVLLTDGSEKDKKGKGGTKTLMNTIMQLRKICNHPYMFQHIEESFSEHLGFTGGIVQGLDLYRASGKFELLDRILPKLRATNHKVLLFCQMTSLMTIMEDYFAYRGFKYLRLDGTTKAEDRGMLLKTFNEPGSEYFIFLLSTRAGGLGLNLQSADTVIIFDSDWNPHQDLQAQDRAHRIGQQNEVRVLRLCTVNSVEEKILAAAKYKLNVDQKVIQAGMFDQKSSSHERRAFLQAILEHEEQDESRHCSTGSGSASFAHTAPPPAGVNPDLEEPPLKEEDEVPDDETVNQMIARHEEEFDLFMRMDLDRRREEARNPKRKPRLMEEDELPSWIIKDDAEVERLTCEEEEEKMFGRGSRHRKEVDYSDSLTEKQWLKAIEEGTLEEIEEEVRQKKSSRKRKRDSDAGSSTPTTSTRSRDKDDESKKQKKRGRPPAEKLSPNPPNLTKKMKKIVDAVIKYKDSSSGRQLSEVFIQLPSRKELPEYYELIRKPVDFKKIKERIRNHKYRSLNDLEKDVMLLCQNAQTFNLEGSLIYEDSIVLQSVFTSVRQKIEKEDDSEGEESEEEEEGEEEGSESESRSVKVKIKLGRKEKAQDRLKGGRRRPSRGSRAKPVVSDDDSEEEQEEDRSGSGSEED
For `CC(C)COc1ncccc1C(=O)Nc1cc(Cl)c(=O)n(C)c1` [Compound 2a], the 50% inhibitory concentration (IC50) is more than 50 µM.
Still for that read-out and setting: for `C[C@H]1OCC(=O)N(Cc2ccccc2)[C@@H]1C(=O)Nc1ccc(=O)n(C)c1` [Compound 7a] the value was more than 50 µM; for `O=C(Nc1cc(F)c(=O)n(CCF)c1)N1CCC(Cl)=C(Cl)C1` [Compound 60a], 46.7 µM; for `CCn1cc(NC(=O)c2ccc(Cl)c(C)n2)ccc1=O` [Compound 35a], more than 50 µM.
Turning to `CO[C@H]1C[C@@H](C(=O)Nc2ccc(=O)n(C)c2)N(C)C1` [Compound 10a], the IC50 was more than 50 µM.
On the same count and under the same terms, the same measure for `CCn1cc(NC(=O)c2cn3cccnc3n2)ccc1=O` [Compound 21a]: more than 50 µM.
Compound `O=C(Nc1cc(F)c(=O)n(CCF)c1)c1ccc2c(c1)CNC2=O` [Compound 68a] gave an IC50 of more than 50 µM.

Still in this experiment, the particulars now being: FL-SMARCA4 IC50, Table 3b.2; SMARCA4 5 nM, ATP 250 uM, mononucleosome 10 nM.
`CN(C)C(=O)c1ccc(C(=O)Nc2cc(F)c(=O)n(CCF)c2)cc1` [Compound 21b] returned an IC50 of more than 50 µM.
`CCn1cc(NC(=O)c2ccc(Cl)c(F)c2)ccc1=O` [Compound 9b] returned an IC50 of more than 50 µM.
Consider `CCn1cc(NC(=O)c2cccc(Cl)c2F)ccc1=O` [Compound 10b], for which the IC50 is more than 50 µM.
Consider `CCn1cc(NC(=O)[C@@H]2CCC[C@H](Cl)C2)ccc1=O` [Compound 13b], for which the IC50 was more than 50 µM.
Consider `CC(=O)c1cc(C(=O)Nc2c[nH]c(=O)c(C)c2)ccc1C` [Compound 1b], for which the IC50 is more than 50 µM.

The experiment is the same for the next values; noted with them: FL-SMARCA4 IC50, Table 3.2; ATPase assay, enzyme 5 nM, ATP 250 uM, chicken mononucleosome 10 nM, 30 min preincubation.
Compound `Cn1c(C(=O)Nc2ccc(=O)n(CC(F)(F)F)c2)cc(Cl)c1Cl` [Compound 53] showed an IC50 of 16.7 µM.
On the same count and under the same terms, the same measure for `CCn1cc(NC(=O)c2ccc(Br)n2C)ccc1=O` [Compound 19]: more than 50 µM; for `CCn1cc(NC(=O)c2cc(Cl)c(Cl)s2)cc(OCCN(C)C)c1=O` [Compound 121]: more than 50 µM; for `NC(=O)c1ccc(C(=O)Nc2cc(F)c(=O)n(CCF)c2)s1` [Compound 303]: more than 50 µM.
Compound `O=C(Nc1cc(F)c(=O)n(CCF)c1)c1csc(NC2CCCC2)n1` [Compound 201] displayed an IC50 of more than 50 µM.
As for `CCn1cc(NC(=O)c2cc(Cl)c(Cl)s2)cc(NCCOC)c1=O` [Compound 113], the midpoint of inhibition, the IC50, lay at 16.6 µM.
Compound `CCn1cc(NC(=O)c2cc(Cl)ns2)ccc1=O` [Compound 107] yielded an IC50 of more than 50 µM.
Consider `Nc1ncc(C(=O)Nc2cc(F)c(=O)n(CCF)c2)s1` [Compound 224], for which the half-inhibitory concentration (IC50) is more than 50 µM.
Consider `CN(C)CCn1cc(NC(=O)c2cc(Cl)c(Cl)n2C)ccc1=O` [Compound 89], for which the IC50 is more than 50 µM.
Same read-out and setting: the same measure for `O=C(Nc1cc(Cl)c(=O)n(CCF)c1)c1cc(Cl)n[nH]1` [Compound 156]: 0.884 µM; for `Nc1c(C(=O)Nc2cc(F)c(=O)n(CC(F)F)c2)sc(Cl)c1Cl` [Compound 332]: 2.2 µM.

Staying with this experiment, now noted: FL-SMARCA4 IC>50, Table 3c.2; ATPase assay, enzyme 5 nM, ATP 250 uM, chicken mononucleosome 10 nM, 30 min preincubation.
Compound `O=C(Nc1cc(F)c(=O)n(CC(F)F)c1)c1cc(C2COC2)c(Cl)s1` [Compound 49c] came in with an IC50 of 16.8 µM.
`O=C(Nc1cc(F)c(=O)n(CC(F)F)c1)c1cc(C#CC2COC2)c(F)s1` [Compound 108c] showed an IC50 of 0.2 µM. Against the preceding compound, the IC50 is about 84-fold lower.
`CC(C)(C)OC(=O)N1CC(C#Cc2cc(C(=O)Nc3cc(F)c(=O)n(CC(F)F)c3)sc2Cl)C1` [Compound 10c] showed an IC50 of 7.13 µM.
The same measure, in the same setting: for `O=C(Nc1cc(-c2c[nH]cn2)c(=O)n(CC(F)F)c1)c1cc(Cl)c(C(F)(F)F)s1` [Compound 104c] the value was 29.6 µM; for `Cn1ccc(-c2cc(NC(=O)c3sc(C(F)(F)F)cc3Cl)cn(CC(F)F)c2=O)n1` [Compound 19c], more than 50 µM.
